The results in this text go back to US20210047324A1 (Aptinyx Inc., priority 2018, published 2021).

A word on the EC50: it is the midpoint of the concentration-response curve. A word on the AUC(0-t): it is exposure summed from dosing to a finite time, without extrapolation to infinity. What is called clearance is a measure of how efficiently the substance is removed, as volume per time. In general, half-life refers to how long it takes for the measured level to halve. Broadly, the Cmax is the maximum level reached in the sampled fluid or tissue. Broadly, the Tmax is the time from dosing to the highest level. The term bioavailability denotes dose-corrected exposure relative to a reference, in per cent.

SMILES strings stand for the structures.

The target in one data set is T1, NMDAR2B (Homo sapiens, UniProt Q13224).
T1 construct: expressed in transfected cells; host or cells: HEK cells (membrane extract)
T1 sequence (Q13224 27-1484, species assumed, other chains not shown): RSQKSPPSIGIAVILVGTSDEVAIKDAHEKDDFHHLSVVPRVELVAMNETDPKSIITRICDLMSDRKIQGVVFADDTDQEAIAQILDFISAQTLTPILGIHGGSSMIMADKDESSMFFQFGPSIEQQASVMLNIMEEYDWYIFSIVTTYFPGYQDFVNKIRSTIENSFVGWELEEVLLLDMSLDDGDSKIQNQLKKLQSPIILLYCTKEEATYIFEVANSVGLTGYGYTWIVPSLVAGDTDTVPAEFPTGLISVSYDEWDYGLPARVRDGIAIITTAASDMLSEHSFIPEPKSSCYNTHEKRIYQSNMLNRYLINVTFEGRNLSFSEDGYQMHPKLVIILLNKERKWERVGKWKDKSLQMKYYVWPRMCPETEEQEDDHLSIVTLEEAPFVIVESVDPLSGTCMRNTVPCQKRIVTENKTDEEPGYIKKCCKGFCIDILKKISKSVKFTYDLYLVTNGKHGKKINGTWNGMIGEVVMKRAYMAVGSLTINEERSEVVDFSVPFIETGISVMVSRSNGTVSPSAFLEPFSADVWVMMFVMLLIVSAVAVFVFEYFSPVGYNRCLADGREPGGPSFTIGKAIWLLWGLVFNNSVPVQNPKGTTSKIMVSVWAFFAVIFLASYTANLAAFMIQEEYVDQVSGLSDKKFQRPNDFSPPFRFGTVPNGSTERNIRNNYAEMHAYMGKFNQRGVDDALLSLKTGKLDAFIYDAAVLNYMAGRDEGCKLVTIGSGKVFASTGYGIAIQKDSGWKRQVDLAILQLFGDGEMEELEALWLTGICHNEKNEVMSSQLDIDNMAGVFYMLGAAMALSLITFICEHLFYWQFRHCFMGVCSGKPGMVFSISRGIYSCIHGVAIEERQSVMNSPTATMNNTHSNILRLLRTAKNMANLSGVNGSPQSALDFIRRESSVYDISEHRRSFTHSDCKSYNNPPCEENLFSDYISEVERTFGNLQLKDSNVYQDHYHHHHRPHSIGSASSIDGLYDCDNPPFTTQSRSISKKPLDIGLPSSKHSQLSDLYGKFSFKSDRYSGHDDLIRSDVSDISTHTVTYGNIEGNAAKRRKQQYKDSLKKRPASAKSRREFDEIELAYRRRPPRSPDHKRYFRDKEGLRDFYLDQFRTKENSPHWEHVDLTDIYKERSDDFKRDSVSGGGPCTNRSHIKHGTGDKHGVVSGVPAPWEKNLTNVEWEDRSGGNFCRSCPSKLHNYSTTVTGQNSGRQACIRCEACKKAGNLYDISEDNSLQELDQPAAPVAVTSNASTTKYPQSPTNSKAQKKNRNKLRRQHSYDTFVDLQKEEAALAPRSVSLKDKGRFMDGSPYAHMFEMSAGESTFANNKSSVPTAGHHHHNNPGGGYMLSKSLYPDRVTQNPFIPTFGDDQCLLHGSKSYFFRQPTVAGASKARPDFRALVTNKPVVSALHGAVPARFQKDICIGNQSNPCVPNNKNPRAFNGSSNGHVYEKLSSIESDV
Nature of the data set: NMDAR agonist assay, [3H]MK-801 binding, NMDAR2B expressing HEK cell membranes. The data set is classed as biochemical. Particulars: 50 μM glutamate; for EC50: read-out: NMDAR2B B: log EC50 (converted); for Emax: read-out: NMDAR2B A: % maximal [3H]MK-801 binding relative to 1 mM glycine. The method in brief: (§1)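 Membranes from HEK cells (300 μg protein) preincubated 15 min with 50 μM glutamate plus compound (1×10^−15–1×10^−7 M) or 1 mM glycine, then with 0.3 μCi [3H]MK-801 for 15 min at 25° C. (nonequilibrium); filter-bound DPM, baseline-subtracted, expressed as % of 1 mM glycine; EC50 and % maximum from three-parameter fit.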

The nature of the next data set: Plasma stability (Human). It is filed as in vitro ADME. The conditions noted are these: after 60 minutes. The protocol: (§2) Plasma stability of disclosed compounds was investigated. The following table indicates the percent of compound remaining after 60 minutes.
Another data set relates to Sprague Dawley rats. Nature of the data set: Porsolt forced swim test. The data set is classed as in vivo. Particulars: 1 h post-dose, 0.1 mg/kg. The protocol: A non-clinical in vivo pharmacology study (Porsolt assay) was performed to measure antidepressant-like effects. The study allowed for the evaluation of the effects of each compound on the Porsolt forced swim test as assessed by the rats' response (reduced floating time) during a 5-minute swimming test.
Male 2-3 month old Sprague Dawley rats were used (Harlan, Indianapolis, Ind.). Rats were housed in Lucite cages with aspen wood chip bedding, maintained on a 12:12 light:dark cycle (lights on at 5 AM), and given ad libitum access to Purina lab chow (USA) and tap water throughout the study.
The Porsolt forced swim test adapted for use in rats was performed as described by Burgdorf et al., (The long-lasting antidepressant effects of rapastinel (GLYX-13) are associated with a metaplasticity process in the medial prefrontal cortex and hippocampus. Neuroscience 308:202-211, 2015). Animals were placed in a 46 cm tall×20 cm in diameter clear glass tube filled to 30 cm with tap water (23±1° C.) for 15 min on the first day (habituation) and 5 min on the subsequent test day. Animals were tested 1 h or 24 h post-dosing with the test compounds or vehicle control (0.5% sodium carboxymethyl cellulose in 0.9% sterile saline). A subset of compounds tested at 1 h post-dosing was tested again 1 wk post-dosing. Animals received a 15 min habituation session 1 day before the first 5 min test. Water was changed after every other animal. Animals were videotaped, and floating time as defined as the minimal amount of effort required to keep the animals head above water was scored offline by a blinded experimenter with high inter-rater reliability (Pearson's r >0.9).

The target of the next data set is T2, NMDAR2A (Homo sapiens, UniProt Q12879).
T2 construct: expressed in transfected cells; host or cells: HEK cells (membrane extract)
T2 sequence (Q12879 23-1464, species assumed, other chains not shown): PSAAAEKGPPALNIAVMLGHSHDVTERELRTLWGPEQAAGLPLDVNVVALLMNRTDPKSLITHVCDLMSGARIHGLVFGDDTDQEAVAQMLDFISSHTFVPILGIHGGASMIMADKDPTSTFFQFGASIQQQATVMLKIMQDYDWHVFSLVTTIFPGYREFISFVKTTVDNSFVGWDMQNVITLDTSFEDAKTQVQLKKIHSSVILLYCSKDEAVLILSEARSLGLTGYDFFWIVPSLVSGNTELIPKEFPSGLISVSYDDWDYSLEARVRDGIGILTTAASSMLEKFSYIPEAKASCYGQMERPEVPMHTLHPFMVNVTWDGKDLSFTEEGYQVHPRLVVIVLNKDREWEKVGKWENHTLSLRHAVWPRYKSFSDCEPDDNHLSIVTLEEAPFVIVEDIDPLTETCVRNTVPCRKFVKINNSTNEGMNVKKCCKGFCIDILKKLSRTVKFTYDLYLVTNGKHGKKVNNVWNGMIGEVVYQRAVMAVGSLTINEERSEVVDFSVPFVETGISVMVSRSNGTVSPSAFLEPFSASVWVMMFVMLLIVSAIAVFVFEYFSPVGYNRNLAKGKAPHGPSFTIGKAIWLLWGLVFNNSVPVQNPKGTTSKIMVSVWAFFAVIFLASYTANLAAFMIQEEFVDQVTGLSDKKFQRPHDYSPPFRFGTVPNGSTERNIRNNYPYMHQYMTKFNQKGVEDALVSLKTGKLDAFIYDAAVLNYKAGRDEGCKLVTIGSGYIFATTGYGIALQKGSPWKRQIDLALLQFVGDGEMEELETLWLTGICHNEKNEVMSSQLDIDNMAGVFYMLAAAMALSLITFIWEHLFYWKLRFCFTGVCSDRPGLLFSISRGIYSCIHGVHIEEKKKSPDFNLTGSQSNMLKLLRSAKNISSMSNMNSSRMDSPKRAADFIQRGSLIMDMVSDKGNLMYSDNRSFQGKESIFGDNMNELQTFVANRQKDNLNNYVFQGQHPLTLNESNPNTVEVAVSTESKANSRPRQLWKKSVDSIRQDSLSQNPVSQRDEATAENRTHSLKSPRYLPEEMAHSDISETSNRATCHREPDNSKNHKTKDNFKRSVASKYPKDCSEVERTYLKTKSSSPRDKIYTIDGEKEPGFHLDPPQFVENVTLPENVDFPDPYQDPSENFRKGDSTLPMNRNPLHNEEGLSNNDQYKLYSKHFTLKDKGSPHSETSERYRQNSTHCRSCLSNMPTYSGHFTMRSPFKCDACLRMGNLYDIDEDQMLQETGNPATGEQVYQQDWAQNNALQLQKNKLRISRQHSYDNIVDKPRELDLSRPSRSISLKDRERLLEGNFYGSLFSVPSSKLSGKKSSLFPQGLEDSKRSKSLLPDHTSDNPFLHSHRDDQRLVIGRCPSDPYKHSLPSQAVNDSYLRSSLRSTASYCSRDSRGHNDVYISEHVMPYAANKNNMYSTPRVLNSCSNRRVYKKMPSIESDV
Nature of the data set: NMDAR agonist assay, [3H]MK-801 binding, NMDAR2A expressing HEK cell membranes. It is filed as biochemical. Particulars: 50 μM glutamate; for EC50: read-out: NMDAR2A B: log EC50 (converted); for Emax: 0.25 h, read-out: NMDAR2A A: % maximal [3H]MK-801 binding relative to 1 mM glycine. In a few lines: as §1

The nature of data set [1]: Microsomal stability (Human). It is filed as in vitro ADME. The conditions noted are these: after 60 minutes. The protocol: (§3) Microsomal stability of disclosed compounds was investigated. The following table indicates the percent of compound remaining after 60 minutes.
Data set [2] can be described thus: Microsomal stability (Rat). The data set is classed as in vitro ADME. The conditions noted are these: after 60 minutes. The protocol:
as §3

The nature of data set [3]: IV pharmacokinetics in Sprague Dawley rats. The data set is classed as in vivo. The conditions noted are these: Sprague-Dawley, rat, in vivo, iv, 2 mg/kg, normal saline; for Cmax: read-out: Cmax; for Vd: read-out: Vss. The protocol:
Sprague Dawley rats were dosed intravenously using a normal saline formulation containing 2 mg/kg of the compounds identified in the below table. The table below summarizes the results of the IV pharmacokinetics.

A short description of data set [4]: Oral pharmacokinetics in Sprague Dawley rats (plasma, brain, CSF). Particulars: rat, 10 mg/kg; for Tmax / AUC(0-t) / bioavailability / Cmax: Sprague-Dawley, po, plasma; for Tmax / AUC(0-t) / Cmax / CSF Cmax / Brain Cmax: per os; for Tmax: read-out: Tmax; for bioavailability: per os 10 mg/kg; for Cmax: read-out: Cmax. It is filed as in vivo. On the procedure:
In another experiment, Sprague Dawley rats were dosed per os (oral gavage) using a normal saline formulation containing 10 mg/kg of the compounds identified in the table below. Plasma, brain, and CSF samples were analyzed at various time points over a 24 hour period. The table below summarizes the results of the oral pharmacokinetics, where the first three values (Tmax, Cmax and AUClast) are plasma values.

A further data set in a line: Plasma stability (Rat). It is filed as in vitro ADME. The conditions noted are these: after 60 minutes. On the procedure: as §2

Take `CC(=O)N1CCCC12CC=CCNC2=O` (single isomer, unassigned) [GG-2, 1-acetyl-1,7-diazaspiro[4.6]undec-9-en-6-one]: the EC50 on NMDAR2B is less than 1 nM. Further, the “Plasma (Human): percent of compound remaining” value in the data set “Plasma stability (Human)” was 99%. In the data set with Sprague Dawley rats, the “% reduction in float time” value was 4% and the Significance vs. vehicle result is listed as “No”. Also, the EC50 on NMDAR2A is less than 1 nM. Moreover, the “Microsomal (Human): percent of compound remaining” value in data set [1] worked out at 88%. Moreover, in data set [2], the “Microsomal (Rat): percent of compound remaining” value was 106%. Moreover, in data set [3], the area under the curve AUC(0-t) is 2550 ng·h/mL, the clearance was found to be 13.1 mL/min/kg, the half-life is 32.4 min and the peak concentration (Cmax) worked out at 3420 ng/mL. Besides, the Vd in data set [3] amounted to 0.58 L/kg. In data set [4], the time to peak (Tmax) stood at 15 min, the area under the curve AUC(0-t) turned out to be 19600 ng·h/mL, the bioavailability amounted to 100% and the maximum concentration (Cmax) came out at 9200 ng/mL. Besides, in data set [4], the “CSF Cmax” value was determined as 2271.94 ng/mL and the “Brain Cmax” value was 1689.69 ng/mL. In addition, the “Plasma (Rat): percent of compound remaining” value in the data set “Plasma stability (Rat)” stood at 101%.

Regarding `CC(C)CN1CCCC12CC=CCNC2=O` (single isomer, unassigned) [GI-2, 1-isobutyl-1,7-diazaspiro[4.6]undec-9-en-6-one], at NMDAR2B, the EC50 is less than 1 nM. Further, the “NMDAR2B A: % maximal [3H]MK-801 binding relative to 1 mM glycine” value at NMDAR2B (relative to 1 mM glycine) is recorded as “+ (<100%=+)”. The “Plasma (Human): percent of compound remaining” value in “Plasma stability (Human)” is recorded as 99%. For the same molecule, the 50% effective concentration (EC50) on NMDAR2A was less than 1 nM. Further, the “NMDAR2A A: % maximal [3H]MK-801 binding relative to 1 mM glycine” value on NMDAR2A (relative to 1 mM glycine) is on record as “+ (<100%=+)”. In [1], the “Microsomal (Human): percent of compound remaining” value came out at 114%. Moreover, in [2], the “Microsomal (Rat): percent of compound remaining” value is listed as 102%. Besides, in data set [3], the exposure AUC(0-t) was 326 ng·h/mL, the clearance is 101 mL/min/kg, the half-life was 19.2 min and the highest concentration (Cmax) worked out at 976 ng/mL. Further, the Vd in data set [3] amounted to 2.25 L/kg. Further, in [4], the Tmax stood at 25.2 min, the AUC(0-t) worked out at 150 ng·h/mL, the bioavailability turned out to be 9% and the Cmax was determined as 132 ng/mL. In [4], the “CSF Cmax” value is 205.53 ng/mL and the “Brain Cmax” value is recorded as 97.39 ng/mL. Moreover, the “Plasma (Rat): percent of compound remaining” value in the data set “Plasma stability (Rat)” came out at 104%.

As to `O=C1NCCCCC12CCCNC2` (single isomer, unassigned) [CF, 2,8-diazaspiro[5.6]dodecan-7-one], the concentration giving a half-maximal response (EC50) on NMDAR2B is less than 1 nM. Besides, the Emax on NMDAR2B (relative to 1 mM glycine) was less than 100%. Further, the “Plasma (Human): percent of compound remaining” value in the data set “Plasma stability (Human)” is 107%. Also, the EC50 at NMDAR2A was less than 1 nM. The Emax on NMDAR2A (relative to 1 mM glycine) was less than 100%. The “Microsomal (Human): percent of compound remaining” value in [1] turned out to be 91%. In data set [2], the “Microsomal (Rat): percent of compound remaining” value is reported as 88%. Besides, in data set [3], the area under the curve AUC(0-t) stood at 1110 ng·h/mL, the clearance was determined as 29.9 mL/min/kg, the half-life is 108 min and the Cmax is 1990 ng/mL. In [3], the Vd came out at 2.85 L/kg. In data set [4], the time of peak concentration (Tmax) was 120 min, the AUC(0-t) worked out at 1830 ng·h/mL, the bioavailability turned out to be 33% and the peak concentration (Cmax) turned out to be 556 ng/mL. Besides, in [4], the “CSF Cmax” value came to 51.64 ng/mL and the “Brain Cmax” value was determined as 48.22 ng/mL. The “Plasma (Rat): percent of compound remaining” value in “Plasma stability (Rat)” is given as 91%.

Take `CN1CC=CCC2(CCCN2Cc2ccccc2)C1=O` (single isomer, unassigned) [GT-1, 1-benzyl-7-methyl-1,7-diazaspiro[4.6]undec-9-en-6-one]: the EC50 on NMDAR2B is less than 1 nM. Also, the Emax on NMDAR2B (relative to 1 mM glycine) was less than 100%. Also, the “Plasma (Human): percent of compound remaining” value in “Plasma stability (Human)” is recorded as 101%. Besides, the EC50 at NMDAR2A is less than 1 nM. Further, the Emax on NMDAR2A (relative to 1 mM glycine) is less than 100%. Further, the “Microsomal (Human): percent of compound remaining” value in [1] is given as 72%. In addition, in data set [2], the “Microsomal (Rat): percent of compound remaining” value came to 3%. In addition, in data set [3], the AUC(0-t) was determined as 210 ng·h/mL, the clearance was 157 mL/min/kg, the half-life is 39.6 min and the Cmax was 421 ng/mL. Moreover, the Vd in data set [3] was found to be 6.5 L/kg. In data set [4], the Tmax was 34.8 min, the exposure AUC(0-t) stood at 9.16 ng·h/mL, the bioavailability came to 1% and the Cmax is 23.3 ng/mL. For the same molecule, in data set [4], the “CSF Cmax” value stood at 0 ng/mL and the “Brain Cmax” value is 0 ng/mL. For the same molecule, the “Plasma (Rat): percent of compound remaining” value in “Plasma stability (Rat)” worked out at 96%.

As to `O=C1NCC=CCC12CC(F)(F)CN2` (single isomer, unassigned) [GL-2, 3,3-difluoro-1,7-diazaspiro[4.6]undec-9-en-6-one], the EC50 on NMDAR2B is less than 1 nM. In addition, in the data set “Plasma stability (Human)”, the “Plasma (Human): percent of compound remaining” value is 91%. Moreover, in the data set with Sprague Dawley rats, the “% reduction in float time” value stood at 6% and the Significance vs. vehicle result was “No”. The concentration giving a half-maximal response (EC50) on NMDAR2A is less than 1 nM. For the same molecule, the “Microsomal (Human): percent of compound remaining” value in [1] turned out to be 99%. Moreover, in [2], the “Microsomal (Rat): percent of compound remaining” value turned out to be 98%. Also, in [3], the exposure AUC(0-t) was determined as 11500 ng·h/mL, the clearance was determined as 2.84 mL/min/kg, the half-life is 244 min and the peak concentration (Cmax) was determined as 1630 ng/mL. Also, the Vd in [3] came out at 1.15 L/kg. Moreover, in [4], the time of peak concentration (Tmax) was determined as 30 min, the AUC(0-t) amounted to 30500 ng·h/mL, the bioavailability worked out at 53% and the peak concentration (Cmax) amounted to 5820 ng/mL. In addition, in [4], the “CSF Cmax” value worked out at 4433.95 ng/mL and the “Brain Cmax” value is recorded as 3556.03 ng/mL. In the data set “Plasma stability (Rat)”, the “Plasma (Rat): percent of compound remaining” value came to 97%.
